Data from ChEMBL document CHEMBL5236660, “Design, synthesis, and biological evaluation of quinoxalinone derivatives as potent BRD4 inhibitors” (Bioorg Med Chem, 2023).

Legend:
HepG2 [1] = test: Induction of apoptosis in human HepG2 cells assessed as necrotic cells at 1.25 uM incubated for 24 hrs by Annexin-V/PI staining based flow cytometry (Rvb=0.85%); assay type: functional
HepG2 [2] = test: Induction of cell cycle arrest in human HepG2 cells assessed as accumulation at G2/M phase at 0.625 uM incubated for 24 hrs by flow cytometry (Rvb= 14.05%); assay type: functional
HepG2 [3] = test: Induction of cell cycle arrest in human HepG2 cells assessed as accumulation at S phase at 1.25 uM incubated for 24 hrs by flow cytometry (Rvb= 20.1%); assay type: functional
HepG2 [4] = test: Antimigratory activity against human HepG2 cells assessed as inhibition of cell migration at 0.625 to 5 uM measured upto 24 hrs by wound healing assay; assay type: functional, cell-based; conditions: dose 0.625-5 µM
HepG2 [5] = test: Induction of cell cycle arrest in human HepG2 cells assessed as accumulation at G0/G1 phase at 2.5 uM incubated for 24 hrs by flow cytometry (Rvb= 46.5%); assay type: functional
HepG2 [6] = test: Induction of apoptosis in human HepG2 cells assessed as total apoptotic cells at 0.625 uM incubated for 24 hrs by Annexin-V/PI staining based flow cytometry (Rvb=5.14%); assay type: functional
HepG2 [7] = test: Induction of apoptosis in human HepG2 cells assessed as early apoptotic cells at 5 uM incubated for 24 hrs by Annexin-V/PI staining based flow cytometry (Rvb=4.48%); assay type: functional
HepG2 [8] = test: Antimigratory activity against human HepG2 cells assessed as increase in Occludin expression at 0.625 to 2.5 uM incubated 24 hrs by Western blot analysis; assay type: functional, cell-based; conditions: dose 0.625-2.5 µM
HepG2 [9] = test: Induction of apoptosis in human HepG2 cells assessed as necrotic cells at 5 uM incubated for 24 hrs by Annexin-V/PI staining based flow cytometry (Rvb=0.85%); assay type: functional
HepG2 [10] = test: Induction of apoptosis in human HepG2 cells assessed as late apoptotic cells at 5 uM incubated for 24 hrs by Annexin-V/PI staining based flow cytometry (Rvb=0.66%); assay type: functional
HepG2 [11] = test: Induction of apoptosis in human HepG2 cells assessed as viable cells at 1.25 uM incubated for 24 hrs by Annexin-V/PI staining based flow cytometry (Rvb=94.0%); assay type: functional; conditions: read-out: Activity

Which results are given for `CC(=O)Nc1ccc(Oc2ccc(F)cc2F)c(-c2ccc3[nH]c(=O)c(C)nc3c2)c1`?
Activity (HepG2 [1]): 0.83%; Activity (HepG2 [2]): 15.5%; Activity (HepG2 [3]): 10.2%; inhibition (HepG2 [4]): Dose-Dependent Effect; Activity (HepG2 [5]): 53.3%; Activity (HepG2 [6]): 6.26%; Activity (HepG2 [7]): 10.4%; Activity (HepG2 [8]): Dose-Dependent Effect; Activity (HepG2 [9]): 0.84%; Activity (HepG2 [10]): 1.26%; viability at 1.25 µM (HepG2 [11]): 91.5%
